Measured values as given in PubChem BioAssay AID1996.
Values after ≈ are worked out from the molar mass of the structure shown.

conditions: buffer; pH 7.4; 200.0 µM

| SMILES | solubility kinetic [µg/mL] |
| --- | --- |
| CN1CCCN(C(=O)CSc2ccccc2)CC1 | 39.3 (≈ 149 µM) |
| Cc1cccc(Nc2cc(C)nc3ccccc23)c1.Cl | > 42.7 |
| CCCN1CCN(c2ccc(S(N)(=O)=O)cc2[N+](=O)[O-])CC1 | 32.9 (≈ 100 µM) |
| CN(Cc1cccc([N+](=O)[O-])c1)Cc1cccc2ccccc12 | < 0.3 |
| C=CCn1c(=S)sc2c(=O)[nH]cnc21 | > 33.8 |
| CCOc1ccccc1OCCN1CCCC1 | 24.1 (≈ 102 µM) |
| Nc1ccc(S(=O)(=O)[O-])cn1.[Na+] | > 29.4 |
| Cc1ccc(C2CN(C)CC2C(=O)c2ccc(F)cc2)cc1 (centres undefined) | 35.8 (≈ 120 µM) |
| O=[N+]([O-])c1cccnc1N1CCCNCC1 | 30.4 (≈ 137 µM) |
| CC(=O)c1cc(CN2CCN(C(C)C)C(CCO)C2)cs1 (centres undefined) | 35.7 (≈ 115 µM) |
| O=C(NCC(=O)N1CCN(Cc2ccc3c(c2)OCO3)CC1)c1ccccc1F | 1.4 (≈ 3.51 µM) |
| CS(=O)(=O)N1CCCC(C(=O)Nc2ccccc2)C1 (centres undefined) | 42.2 (≈ 149 µM) |
| Cc1ccc(NC(=O)CCN2CCC(Cc3ccccc3)CC2)cc1 | 22.6 (≈ 67.2 µM) |
| Cc1ccc(/C([O-])=C(/C(=S)NCc2ccccc2)[n+]2ccccc2)cc1[N+](=O)[O-] | 12 (≈ 29.6 µM) |
| CC(C)Cn1c(N)c(C(=O)COC(=O)c2cc(S(=O)(=O)N3CCOCC3)ccc2Br)c(=O)n(C)c1=O | 7.9 (≈ 13.4 µM) |
| N#Cc1ccc(NC(=O)CN2C(=O)NC3(CCCC3)C2=O)cc1 | > 46.8 |
| Clc1ccc(-c2nc(-c3cnccn3)no2)cc1 | 3.2 (≈ 12.4 µM) |
| CN(C(=O)Nc1ccccc1)C1CCCc2ccccc21 (centres undefined) | > 42.1 |
| CS(=O)(=O)N1CCN(Cc2cc(=O)n3ccsc3n2)CC1 | > 49.3 |
| CCOC(=O)C1=C(O)C(=O)N(C2CCCCC2)C1 | > 38 |
| CN1CCN(C(=S)c2ccc(-c3cccc([N+](=O)[O-])c3)o2)CC1 | 43.3 (≈ 131 µM) |
| Cc1cc(NS(=O)(=O)c2ccc3c(c2)OCCO3)no1 | 31.2 (≈ 105 µM) |
| CCCN1CCC(NC2CCC(O)CC2)CC1 (centres undefined) | 27.1 (≈ 113 µM) |
| CCCCN(CC)Cc1c(O)ccc2c3c(c(=O)oc12)CCC3 | 44 (≈ 139 µM) |

Continued, values first:

| solubility kinetic [µg/mL] | SMILES |
| --- | --- |
| 41.4 | COc1cc(CNCc2ccco2)cc(OC)c1O.Cl |
| > 37.1 | O=C(Nc1ccsc1C(=O)O)c1ccccc1 |
| < 0.7 | COc1ccc(NC(=O)c2cc(F)c(F)cc2Cl)cc1Cl |
| > 50 | O=C(Nc1nccs1)C1CC(=O)N(CCc2ccc(F)cc2)C1 (centres undefined) |
| 26.9 (≈ 84 µM) | Cc1cccc2cc(-c3nc4ccc(C(=O)O)cc4[nH]3)c(=O)oc12 |
| 31 (≈ 73.9 µM) | CCOC(=O)c1c(-c2ccc(C)o2)csc1NC(=O)CN1CCC(C(N)=O)CC1 |
| > 46.3 | COc1ccc(OC)c(S(=O)(=O)NCc2ccccn2)c1 |
| 40.4 (≈ 147 µM) | Cc1ccc(NC(=O)C2CCCCC2C(=O)O)cc1C (centres undefined) |
| > 36.5 | COc1ccc(OC)c(C(=O)c2ccccn2)c1 |
| > 44 | CC(=O)Nc1ccc(C(=O)COC(=O)C2CC2C)c(F)c1 (centres undefined) |
| > 38 | Cc1ccc(O)c(CNc2nc3ccccc3[nH]2)c1 |
| > 50.9 | O=C(Cc1nc(-c2cnccn2)no1)NNC(=O)Nc1ccccc1 |
| 26.2 (≈ 82.6 µM) | O=C(O)c1cccc(S(=O)(=O)N2CCc3ccccc3C2)c1 |
| > 51.5 | CCC(C)[C@H](NC(=O)Nc1ccc(S(N)(=O)=O)cc1)C(=O)OC (some centres undefined) |
| > 50.5 | O=C(Nc1ccc(Cl)cc1F)C1CC(=O)N(Cc2ccco2)C1 (centres undefined) |
| > 41.3 | COCC(C)NC(=O)COc1nncc2ccccc12 (centres undefined) |
| 3.8 (≈ 11.6 µM) | CSc1ncccc1C(=O)Nc1ccc(OC(F)(F)F)cc1 |
| 44 (≈ 136 µM) | COC(=O)c1cc(C)sc1NC(=O)CSc1ncccn1 |

| solubility kinetic [µg/mL] | SMILES |
| --- | --- |
| 39.4 (≈ 125 µM) | Cc1ccc([N+](=O)[O-])cc1NC(=S)NCCc1ccccc1 |
| 28.2 (≈ 100 µM) | CC(C)c1ccccc1NS(=O)(=O)c1cccs1 |
| 33 (≈ 109 µM) | CCC(C)NC(=O)c1cc2c(=O)n3ccccc3nc2s1 (centres undefined) |
| 8.9 (≈ 29.8 µM) | Cc1cc(C(=O)OCC(=O)Nc2ccccc2C#N)c(C)o1 |
| 45.2 (≈ 150 µM) | CN(C)CCCNC(=O)c1cc(Br)ccc1O |
| > 64.2 | CC(OC(=O)[C@@H](NC(=O)c1ccco1)C(C)C)C(=O)Nc1ncc(Cl)cc1Cl (some centres undefined) |
| > 45.7 | CCOc1ccc(C(=O)NC(C(=O)N2CCC2)C(C)C)cc1 (centres undefined) |
| 36.9 (≈ 120 µM) | COc1ccc(OCC(O)CNC(=O)c2cccs2)cc1 (centres undefined) |
| > 35 | CC(=O)Nc1cccc(-c2csc(N)n2)c1 |
| 0.6 (≈ 2.27 µM) | Cc1cc(C)nc(SCc2ccc(Cl)cc2)n1 |
| 36.6 (≈ 131 µM) | CCOC(=O)c1ccc(CC2SC(N)=NC2=O)cc1 (centres undefined) |
| > 49.4 | Cc1ccc(F)cc1NC(=O)c1ccc(OCC2CCCO2)cc1 (centres undefined) |
| 53 (≈ 141 µM) | Cc1cccc(N2C(=O)C(O)=C(C(=O)c3cccs3)C2c2ccccc2)n1 (centres undefined) |
| > 35 | Cc1csc2c(N3CCCCC3)ncnc12 |
| 9.4 (≈ 25.2 µM) | O=C(Cc1ccc(F)cc1)N1CCN=C1SCc1cccc([N+](=O)[O-])c1 |
| 21.8 (≈ 60.5 µM) | CSc1ncccc1C(=O)OCC(=O)NC12CC3CC(CC(C3)C1)C2 |
| 1.6 (≈ 5.57 µM) | COc1ccc2c(ccn2S(=O)(=O)c2ccccc2)c1 |
